# In patent US20160311882A1, “Novel Compound for Treatment of Severe Hypoglycemia” (ELI LILLY AND COMPANY, priority 2013, published 2016):
# Where two headings read alike, the source gives them in different places. Non-standard residues stand in square brackets, D forms with d. Residues, ends and D or L forms follow the SMILES beside them. Aib = CC(C)(N)C(=O)O
# Experiments:
# [1] = Chemical stability by RP-HPLC (% main peak); assay type: physicochemical; conditions: for 4° C. % Main Peak / 30° C. % Main Peak / 40° C. % Main Peak: 4 weeks
# Protocol: (§1) The compound of SEQ ID NO: 2 is dissolved in H2O to a 10 mg/mL concentration (peptide content), filtered through a 0.22 μm filter (Millex, SLGV004SL), and then diluted to 1 mg/mL in Buffer P5 (10 mM Histidine, 150 mM NaCl in H20, pH 5.0) or Buffer P6 (10 mM Histidine, 150 mM NaCl in H20, pH 6.0). Each solution is transferred to three vials and autoclaved. Samples are then maintained at 4° C., 30° C. and 40° C. Samples are visually assessed at different time points for turbidity and phase separation. Stability of the compound is assessed by analytical reverse phase HPLC (RP-HPLC) on a Phenomenex Aeris Widepore, 3.6 μm, XB-C18 4.6×100 mm column (P/NO 00D-4482-E0) heated at 60° C. with a AB (A=0.05% TFA/H2O; B=0.04% TFA/acetonitrile) gradient of 5% B isocratic over 5 min, 5 to 25% B over 20 minutes, 25 to 30% B over 30 min, and 30 to 45% B over 10 min with a flow rate of 1.2 mL/min (wavelength of 220 ηm).
# The compound of SEQ ID NO: 2 also maintains chemical stability at pH 5 (Buffer P5) and pH 6 (Buffer P6) when maintained at 4° C., 30° C. and 40° C. for 4 weeks.
# [2] = Physical stability test using Thioflavin T binding assay (fibrillation); assay type: physicochemical; conditions: 25° C.; for Thioflavin T fluorescence t = 0 h / Thioflavin T fluorescence t = 48 h / Thioflavin T fluorescence t = 96 h: 1 mg/mL, stirred 300 rpm
# Protocol: Fibrillation is a common problem when glucagon is formulated in aqueous solution. To assess the level of fibrillation of the compound of the present invention, a Thioflavin T binding assay is performed.
# All samples are mechanically stressed at 25° C. in a magnetic stir plate set at 300 rpm. […] Raw data is collected with Softmax Pro 5.4.1 (Molecular Devices) and imported to Excel.
# blood glucose levels = experiment: Effects of compound on blood glucose levels in C57/Bl6 male mice; assay type: in vivo; conditions: for Blood glucose levels: mean ± SEM of 4 mice
# Protocol: To determine the effects of the compound of SEQ ID NO: 2 on blood glucose levels, the compound is administered to C57/B 16 mice. Three month old male C57BL6 mice (Harlan Laboratories) are used Animals are individually housed in a temperature-controlled (24° C.) facility with a 12 hour light/dark cycle, and have free access to food and water. After 1 week acclimation to the facility, mice are randomized to treatment groups (n=4/group). Test compound is formulated in Buffer 2 (see Physical stability test using Thioflavin T binding assay). On the morning of test, food is removed at 08:00 AM. Two hours after food is removed, the test compound is given subcutaneously at 0, 0.3, 1, 3 or 10 μg/kg doses. Blood glucose is measured at time 0, 15, 30, 60 and 120 minutes after test compound administration with an ACCU-CHECK® (Roche Diagnostics) glucometer. […] Results are expressed as mean±standard error mean (SEM) of 4 mice per group.
# Blood glucose levels at 10 μg/kg of compound of SEQ ID NO: 2 is taken as the maximum value.
# [3] = assay type: physicochemical
# Protocol: as §1
# [4] = Buffer 1 (20 mM Histidine, pH 6.0)
# [5] = Buffer 2 (10 mM Histidine, 150 nM NaCl, pH 6.0)
# [6] = Buffer 3 (10 mM Histidine, 300 mM sorbitol, pH 6.0)
# [7] = Buffer 4 (10 mM Histidine, 0.02% Tween 80, pH 6.0)
# [8] = Buffer 5 (10 mM Histidine, 300 mM sucrose, pH 6.0)
smiles,measurement,setting,value
CC(C)C[C@H](NC(=O)[C@H](Cc1c[nH]c2ccccc12)NC(=O)[C@H](CCC(=O)O)NC(=O)[C@@H](NC(=O)[C@H](Cc1ccccc1)NC(=O)[C@H](CCC(=O)O)NC(=O)[C@H](CCC(N)=O)NC(=O)[C@H](C)NC(=O)[C@H](CCCCN)NC(=O)[C@H](CCCCN)NC(=O)C(C)(C)NC(=O)[C@H](CC(=O)O)NC(=O)[C@H](CC(C)C)NC(=O)[C@H](Cc1ccc(O)cc1)NC(=O)[C@H](CCCCN)NC(=O)[C@H](CO)NC(=O)[C@H](Cc1ccc(O)cc1)NC(=O)[C@H](CC(=O)O)NC(=O)[C@H](CO)NC(=O)[C@@H](NC(=O)[C@H](Cc1ccccc1)NC(=O)[C@@H](NC(=O)CNC(=O)[C@H](CCC(N)=O)NC(=O)[C@H](CO)NC(=O)[C@@H](N)Cc1ccc(O)cc1)[C@@H](C)O)[C@@H](C)O)C(C)C)C(=O)N[C@@H](CC(C)C)C(=O)N[C@@H](CCCCN)C(=O)N[C@H](C(=O)NCC(=O)N1CCC[C@H]1C(=O)N[C@@H](CO)C(=O)N[C@@H](CO)C(=O)NCC(=O)N[C@@H](C)C(=O)N1CCC[C@H]1C(=O)N1CCC[C@H]1C(=O)N[C@@H](CCCCN)C(=O)N[C@@H](CO)C(=O)N[C@@H](CCCCN)C(N)=O)[C@@H](C)O [SEQ ID NO: 2] (H-YSQGTFTSDYSKYLD[Aib]KKAQEFVEWLLKTGPSSGAPPKSK-NH2; N-terminus assumed),% Main Peak Day 0,[1]; Buffer P5 (pH 5),96.53%
same,4° C. % Main Peak,[1]; Buffer P5 (pH 5),96.93%
same,30° C. % Main Peak,[1]; Buffer P5 (pH 5),93.82%
same,40° C. % Main Peak,[1]; Buffer P5 (pH 5),91.59%
same,main peak changes,"[1]; Buffer P5, pH 5 at 4-wk 30° C. vs 4° C.",less than 4%
same,main peak changes,"[1]; Buffer P5, pH 5 at 4-wk 40° C. vs 4° C.",< 6%
same,% Main Peak Day 0,[1]; Buffer P6 (pH 6),97.00%
same,4° C. % Main Peak,[1]; Buffer P6 (pH 6),95.89%
same,30° C. % Main Peak,[1]; Buffer P6 (pH 6),95.17%
same,40° C. % Main Peak,[1]; Buffer P6 (pH 6),90.57%
same,main peak changes,"[1]; Buffer P6, pH 6 at 4-wk 30° C. vs 4° C.",< 1%
same,main peak changes,"[1]; Buffer P6, pH 6 at 4-wk 40° C. vs 4° C.",< 6%
same,fibrillation as measured by the Thioflavin T binding assay,"[2]; pH 6, 96 hours, mechanical stress",did not demonstrate fibrillation
same,Thioflavin T fluorescence t = 0 h,[2]; [4],84.5 fluorescence units
same,Thioflavin T fluorescence t = 48 h,[2]; [4],89.5 fluorescence units
same,Thioflavin T fluorescence t = 96 h,[2]; [4],98.1 fluorescence units
same,Thioflavin T fluorescence t = 0 h,[2]; [5],188.4 fluorescence units
same,Thioflavin T fluorescence t = 48 h,[2]; [5],211.6 fluorescence units
same,Thioflavin T fluorescence t = 96 h,[2]; [5],231.4 fluorescence units
same,Thioflavin T fluorescence t = 0 h,[2]; [6],83.6 fluorescence units
same,Thioflavin T fluorescence t = 48 h,[2]; [6],90.9 fluorescence units
same,Thioflavin T fluorescence t = 96 h,[2]; [6],101.7 fluorescence units
same,Thioflavin T fluorescence t = 0 h,[2]; [7],70.1 fluorescence units
same,Thioflavin T fluorescence t = 48 h,[2]; [7],76.9 fluorescence units
same,Thioflavin T fluorescence t = 96 h,[2]; [7],83.9 fluorescence units
same,Thioflavin T fluorescence t = 0 h,[2]; [8],86.3 fluorescence units
same,Thioflavin T fluorescence t = 48 h,[2]; [8],87.5 fluorescence units
same,Thioflavin T fluorescence t = 96 h,[2]; [8],98.9 fluorescence units
same,Blood glucose levels,"blood glucose levels; 0.3 μg/kg subcutaneously, 0 minutes",140.2 ± 2.4 mg/dL
same,Blood glucose levels,"blood glucose levels; 0.3 μg/kg subcutaneously, 15 minutes",185.6 ± 7.5 mg/dL
same,Blood glucose levels,"blood glucose levels; 0.3 μg/kg subcutaneously, 30 minutes",193.3 ± 6.0 mg/dL
same,Blood glucose levels,"blood glucose levels; 0.3 μg/kg subcutaneously, 60 minutes",167.4 ± 6.6 mg/dL
same,Blood glucose levels,"blood glucose levels; 0.3 μg/kg subcutaneously, 120 minutes",147.0 ± 5.1 mg/dL
same,Blood glucose levels,"blood glucose levels; 1 μg/kg subcutaneously, 0 minutes",140.0 ± 2.0 mg/dL
same,Blood glucose levels,"blood glucose levels; 1 μg/kg subcutaneously, 15 minutes",200.6 ± 5.8 mg/dL
same,Blood glucose levels,"blood glucose levels; 1 μg/kg subcutaneously, 30 minutes",204.8 ± 8.9 mg/dL
same,Blood glucose levels,"blood glucose levels; 1 μg/kg subcutaneously, 60 minutes",161.9 ± 4.0 mg/dL
same,Blood glucose levels,"blood glucose levels; 1 μg/kg subcutaneously, 120 minutes",145.6 ± 3.9 mg/dL
same,Blood glucose levels,"blood glucose levels; 3 μg/kg subcutaneously, 0 minutes",141.5 ± 3.0 mg/dL
same,Blood glucose levels,"blood glucose levels; 3 μg/kg subcutaneously, 15 minutes",245.5 ± 10.0 mg/dL
same,Blood glucose levels,"blood glucose levels; 3 μg/kg subcutaneously, 30 minutes",265.6 ± 13.3 mg/dL
same,Blood glucose levels,"blood glucose levels; 3 μg/kg subcutaneously, 60 minutes",188.1 ± 9.3 mg/dL
same,Blood glucose levels,"blood glucose levels; 3 μg/kg subcutaneously, 120 minutes",143.9 ± 3.8 mg/dL
same,Blood glucose levels,"blood glucose levels; 10 μg/kg subcutaneously, 0 minutes",147.7 ± 4.4 mg/dL
same,Blood glucose levels,"blood glucose levels; 10 μg/kg subcutaneously, 15 minutes",252.3 ± 11.2 mg/dL
same,Blood glucose levels,"blood glucose levels; 10 μg/kg subcutaneously, 30 minutes",271.8 ± 13.8 mg/dL
same,Blood glucose levels,"blood glucose levels; 10 μg/kg subcutaneously, 60 minutes",202.1 ± 7.9 mg/dL
same,Blood glucose levels,"blood glucose levels; 10 μg/kg subcutaneously, 120 minutes",146.3 ± 5.5 mg/dL
same,ED50,"blood glucose levels; calculated on the 30 minute glucose measurements, 10 μg/kg taken as maximum, subcutaneous",1.36 µg/kg
same,solubility,[3],maintains good solubility
same,Physical appearance,"[3]; 4° C., 30° C. and 40° C., pH 5 and pH 6, over 4 weeks","clear to colorless, with no opalescences and no particles"
same,30° C. vs 4° C. Recovery 4 wk,[3]; Buffer P5 (pH 5.0),102%
same,40° C. vs 4° C. Recovery 4 wk,[3]; Buffer P5 (pH 5.0),99%
same,30° C. vs 4° C. Recovery 4 wk,[3]; Buffer P6 (pH 6.0),101%
same,40° C. vs 4° C. Recovery 4 wk,[3]; Buffer P6 (pH 6.0),103%
